Data published in US9988371B2, “Benzimidazole analogues and related methods” (The Arizona Board of Regents, on Behalf of the University …, priority 2014, dated 2018).

What was measured:
[1] = test system: RET/C634Y transformed NIH3T3 fibroblasts; experiment: NIH3T3 RET/C634Y tumors in nude mice; format: in vivo, BALB/c nu/nu mice; settings: 1.0, 3.0 or 10 mg/kg daily, oral gavage
Excerpt: FIG. 8: Anti-tumorigenic activity of Pz-1 in nude mice implanted with RET/C634Y or HRAS(G12V) transformed NIH3T3 fibroblasts. […] Average tumor volume (±SD: standard deviations) is reported. NIH3T3 RET/C634Y (200,000 cells) or NIH3T3 HRAS/G12V (50,000 cells) were inoculated subcutaneously into dorsal portion (both sides) of 6-week-old female BALB/c nu/nu mice (n. 31 mice/cell line) (Jackson Laboratories, Bar Harbor, Me.). After 4 days, before tumors had appeared, animals were randomly assigned to receive Pz-1 (1.0, 3.0 or 10 mg/kg daily) (23 mice/cell line: 8 mice/group for 1.0 and 3.0 mg/kg daily doses and 7 mice for 10 dose mg/kg daily) or vehicle control (8 mice) by oral gavage. Tumor diameters were measured with calipers every 1-2 days. Tumor volumes (V) were calculated by the rotational ellipsoid formula and reported as average volumes±standard deviations. […]
(§1) TT cells (7.5×10^6/mouse) were inoculated subcutaneously into dorsal portions (both sides) of 39 SCID mice (Jackson Laboratories, Bar Harbor, Me.). […] Tumor diameters were measured with callipers every week. Tumor volumes (V) were calculated by the rotational ellipsoid formula: V=A×B^2/2 (A=axial diameter; B=rotational diameter) and reported as average volumes±standard deviations. […] Anti-tumorigenic activity of Pz-1 was also assessed in nude mice implanted with RET/C634Y or HRAS(G12V) transformed NIH3T3 fibroblasts. […]

[2] = molecular target: T1, VEGFR2 (Mus musculus, UniProt P35918); experiment: In vivo target inhibition, pVEGFR2 in HRAS/G12V-induced tumors; set-up: species or system nude mice; settings: 48 hr, 1.0 or 3.0 mg/kg daily
T1 construct: from tissue; host or cells: subcutaneous tumours (NIH3T3 RET/C634Y or NIH3T3 HRAS/G12V) in BALB/c nu/nu mice
T1 sequence (P35918 20-1345): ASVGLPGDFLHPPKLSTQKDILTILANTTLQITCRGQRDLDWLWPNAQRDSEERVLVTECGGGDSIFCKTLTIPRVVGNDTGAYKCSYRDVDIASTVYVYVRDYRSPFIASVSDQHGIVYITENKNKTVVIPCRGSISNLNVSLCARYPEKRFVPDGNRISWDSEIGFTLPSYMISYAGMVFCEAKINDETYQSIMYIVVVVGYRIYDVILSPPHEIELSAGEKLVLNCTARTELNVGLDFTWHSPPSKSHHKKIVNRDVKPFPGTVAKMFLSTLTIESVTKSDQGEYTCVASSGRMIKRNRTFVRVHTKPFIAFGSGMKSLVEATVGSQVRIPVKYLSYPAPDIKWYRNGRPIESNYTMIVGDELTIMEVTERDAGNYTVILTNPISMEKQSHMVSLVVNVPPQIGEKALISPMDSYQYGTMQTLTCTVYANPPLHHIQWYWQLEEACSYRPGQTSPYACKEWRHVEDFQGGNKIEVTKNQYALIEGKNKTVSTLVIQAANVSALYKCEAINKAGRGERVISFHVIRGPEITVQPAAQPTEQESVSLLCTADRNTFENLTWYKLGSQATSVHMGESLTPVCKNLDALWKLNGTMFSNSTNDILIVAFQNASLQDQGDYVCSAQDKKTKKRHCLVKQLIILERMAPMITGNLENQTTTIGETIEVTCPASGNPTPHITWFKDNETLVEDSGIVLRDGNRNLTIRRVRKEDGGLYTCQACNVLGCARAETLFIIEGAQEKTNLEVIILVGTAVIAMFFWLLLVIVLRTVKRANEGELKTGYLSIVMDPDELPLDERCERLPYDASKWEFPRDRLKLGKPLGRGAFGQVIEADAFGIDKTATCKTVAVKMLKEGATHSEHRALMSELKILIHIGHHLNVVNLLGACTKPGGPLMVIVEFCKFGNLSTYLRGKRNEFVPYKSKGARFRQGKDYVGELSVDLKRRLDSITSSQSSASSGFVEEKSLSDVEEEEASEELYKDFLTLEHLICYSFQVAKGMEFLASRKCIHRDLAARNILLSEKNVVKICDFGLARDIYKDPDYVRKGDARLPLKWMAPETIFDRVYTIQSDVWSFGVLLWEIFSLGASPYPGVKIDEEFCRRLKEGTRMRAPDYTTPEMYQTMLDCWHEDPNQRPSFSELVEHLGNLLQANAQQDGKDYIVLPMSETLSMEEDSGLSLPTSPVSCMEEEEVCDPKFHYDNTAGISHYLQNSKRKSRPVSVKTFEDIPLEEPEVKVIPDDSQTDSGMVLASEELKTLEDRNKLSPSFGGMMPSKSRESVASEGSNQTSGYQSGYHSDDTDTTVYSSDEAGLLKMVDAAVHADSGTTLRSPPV
Method: FIG. 9: Photographs of blots showing effects of Pz-1 on cellular phosphorylation events in tumors induced in nude mice (from FIG. 8) by injection of NIH3T3 fibroblasts transformed by RET/C634Y or HRAS/G12V. […] Some of the vehicle-treated tumors, at the end of the tumor growth experiment described in FIG. 8, were treated for 48 hr with different doses of Pz-1 (TR) or left untreated (NT). At the end of the treatment, 50 μg of tumor protein lysates were subjected to immunoblotting with anti-phospho-Y1062 (αp1062) and anti-phospho-905 (αpY905) RET antibodies, anti-phospho-MAPK (αpMAPK, T302/Y304), anti-phospho-SHC (αpSHC, Y317), anti-phospho-p70S6K (αpp70S6K, T389), anti-phospho-S6RP (αpS6RP, S235/S236), and anti-phospho-VEGFR2 (αpVEGFR2 pY1175) antibodies. The blots were normalized using anti-RET (αRET), anti-SHC (αSHC), anti-MAPK (αMAPK), anti-p70S6K (αp70S6K), anti-S6RP (αS6RP) or anti-VEGFR2 (αVEGFR2) antibodies.
Some of the vehicle-treated tumors, at the end of the tumor growth experiment reported in FIG. 8, were treated for 48 hr with different doses of Pz-1 (1.0 or 3.0 mg/kg daily) or left untreated. […]

[3] = test system: TT cells xenografted; experiment: TT cell xenograft in SCID mice; format: in vivo; settings: 0.3, 1.0, or 3.0 mg/kg daily, oral gavage, 28 days; all tested doses
Excerpt: FIG. 7: Anti-tumorigenic activity of Pz-1 on TT cells xenografted into SCID mice. […] Average volumes of tumors are reported±SD (standard deviation). TT cells (7.5×10^6/mouse) were inoculated subcutaneously into dorsal portions (both sides) of 39 female SCID mice (Jackson Laboratories, Bar Harbor, Me.). After 5 weeks, at least one tumour was present in each mouse and a total of 70 tumours were visible: 56 tumours were 40-150 mm^3 and 14 tumours were <40 mm^3. […] Tumor-bearing animals were randomly assigned to receive Pz-1 (0.3, 1.0, or 3.0 mg/kg, daily) (29 mice, 52 tumours) or vehicle (10 mice, 18 tumours) by oral gavage. Treatment was administered for 28 consecutive days. Tumor diameters were measured with calipers every week. Tumor volumes (V) were calculated by the rotational ellipsoid formula: V=A×B^2/2 (A=axial diameter; B=rotational diameter) and reported as average volumes±standard deviations. […]
as §1, with “Tumor diameters were measured” for “Anti-tumorigenic activity of Pz-1 was also assessed in nude mice implanted”, “calipers every 1-2 days.” for “RET/C634Y or HRAS(G12V) transformed NIH3T3 fibroblasts.”

Cn1cc(-c2ccc3c(c2)ncn3-c2ccc(CC(=O)Nc3cc(C(C)(C)C)on3)cc2)cn1 [Pz-1, N-(5-(tert-butyl)isoxazol-3-yl)-2-(4-(5-(1-methyl-1H-pyrazol-4-yl)-1H-benzo[d]imidazol-1-yl)phenyl)acetamide]
formation of tumors induced by RET cells [1]: totally prevented formation of tumors
pVEGFR2 in tumors [2]: inhibited
tumor growth [3]: strongly inhibited tumor growth
